Measured values taken from PMC10584170, “Machine learning-based phenotypic imaging to characterise the targetable biology of Plasmodium falciparum male gametocytes for the development of transmission-blocking antimalarials” (PLOS Pathogens, 2023).
Like-named read-outs stand apart in the source and are kept apart here.

Tests used:
[1] = tested on: P. falciparum male gametocytes; test: P. falciparum Dual Gamete Formation Assay (PfDGFA), male readout (exflagellation); assay type: cell-based, Plasmodium falciparum NF54; conditions: for Activity: hit = >50% inhibition in male or female readout in at least 3 replicates, 0 = no class assigned
How it was run: (§1)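 Read-outs are automated image counts of exflagellation centres (brightfield, 10 frames over 1 s) and Pfs25-positive female gametes (Cy3 fluorescence).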

[2] = tested on: P. falciparum female gametocytes; test: P. falciparum Dual Gamete Formation Assay (PfDGFA), female readout (Pfs25-positive female gametes); assay type: cell-based, Plasmodium falciparum NF54
How it was run: as §1

[3] = PfDGFA at 2µM, 24h preincubation with gametocytes, average of replicates
[4] = PfDGFA at 2µM, 24h preincubation with gametocytes, replicate R1
[5] = PfDGFA at 2µM, 24h preincubation with gametocytes, replicate R3
[6] = PfDGFA at 2µM, 24h preincubation with gametocytes, replicate R4
[7] = number of replicates with >50% inhibition in the male readout, 2µM
[8] = number of replicates with >50% inhibition in the female readout, 2µM
[9] = 2µM, 24h preincubation with gametocytes prior to induction of gametogenesis, average of replicates
[10] = 2µM, 24h preincubation with gametocytes prior to induction of gametogenesis, replicate R1
[11] = 2µM, 24h preincubation with gametocytes prior to induction of gametogenesis, replicate R3
[12] = 2µM, 24h preincubation with gametocytes prior to induction of gametogenesis, replicate R4
[13] = 2µM, 24h preincubation, hits selected on >50% inhibition in the male readout across replicates
[14] = PfDGFA at 2µM, 24h preincubation
[15] = 2µM, 24h preincubation, hits selected on >50% inhibition in the female readout across replicates
[16] = PfDGFA at 2µM, 24h preincubation with gametocytes prior to induction of gametogenesis, replicate R1
[17] = PfDGFA at 2µM, 24h preincubation with gametocytes prior to induction of gametogenesis, replicate R3
[18] = PfDGFA at 2µM, 24h preincubation with gametocytes prior to induction of gametogenesis, replicate R4
[19] = PfDGFA at 2µM, 24h preincubation, average of replicates
[20] = 2µM, 24h preincubation, number of replicates with >50% inhibition in the male readout
[21] = 2µM, 24h preincubation, number of replicates with >50% inhibition in the female readout

O=C(Cc1cccc(O)c1)NCC(Cc1ccc(O)cc1)c1ccccc1 (centres unmarked) [TCMDC-138482]
Selectivity Ratio M ([1]; HepG2 Tox50 versus male IC50): 58.17
inhibition at 2 µM ([1]; Plasmodium falciparum, 2µM, 24h preincubation with gametocytes, average of replicates, read-out: Average inhibition male (%)): 97.3%
inhibition at 2 µM ([1]; Plasmodium falciparum, 2µM, 24h preincubation with gametocytes, replicate R1, read-out: % inhibition male (individual replicates) R1): 97.5%
inhibition at 2 µM ([1]; Plasmodium falciparum, 2µM, 24h preincubation with gametocytes, replicate R2, read-out: % inhibition male (individual replicates) R2): 95.7%
inhibition at 2 µM ([1]; Plasmodium falciparum, 2µM, 24h preincubation with gametocytes, replicate R3, read-out: % inhibition male (individual replicates) R3): 95.7%
inhibition at 2 µM ([1]; Plasmodium falciparum, 2µM, 24h preincubation with gametocytes, replicate R4, read-out: % inhibition male (individual replicates) R4): 100%
IC50 ([1]; Plasmodium falciparum, PfDGFA, 24 h incubation with gametocytes before induction, exflagellation readout, read-out: Male IC50): 1720 nM
Selectivity ratio F ([2]; HepG2 Tox50 versus female IC50): 10
inhibition at 2 µM ([2]; Plasmodium falciparum, 2µM, 24h preincubation with gametocytes, average of replicates, read-out: Average inhibition female (%)): 28.1%
inhibition at 2 µM ([2]; Plasmodium falciparum, 2µM, 24h preincubation with gametocytes, replicate R1, read-out: % inhibition female (individual replicates) R1): 32.7%
inhibition at 2 µM ([2]; Plasmodium falciparum, 2µM, 24h preincubation with gametocytes, replicate R2, read-out: % inhibition female (individual replicates) R2): 38.2%
inhibition at 2 µM ([2]; Plasmodium falciparum, 2µM, 24h preincubation with gametocytes, replicate R3, read-out: % inhibition female (individual replicates) R3): 28.5%
inhibition at 2 µM ([2]; Plasmodium falciparum, 2µM, 24h preincubation with gametocytes, replicate R4, read-out: % inhibition female (individual replicates) R4): 13.2%
IC50 ([2]; Plasmodium falciparum, PfDGFA, 24 h incubation with gametocytes before induction, female gamete readout, read-out: Female IC50): > 10000 nM

COc1cc2nc(N3CCC(CCCC4CCNCC4)CC3)nc(NCc3ccccn3)c2cc1OC.O=C(O)C(F)(F)F [TCMDC-138494]
Average inhibition male (%) [1, 3]: 68.1%
% inhibition male (individual replicates) R1 [1, 4]: 83.7%
% inhibition male (individual replicates) R3 [1, 5]: 75.6%
% inhibition male (individual replicates) R4 [1, 6]: 100.2%
HitlevelM [1, 7]: 3
Average inhibition female (%) [2, 3]: 59.5%
% inhibition female (individual replicates) R1 [2, 4]: 47.2%
% inhibition female (individual replicates) R3 [2, 5]: 73.7%
% inhibition female (individual replicates) R4 [2, 6]: 83.6%
HitlevelF [2, 8]: 2

COc1ccc(Cn2c(Nc3cccc(C(F)(F)F)c3)nc3ccc(C(=O)NCCN4CCCC4)cc32)cc1Cl [TCMDC-138531]
Average inhibition male (%) [1, 9]: -2.0%
% inhibition male (individual replicates) R1 [1, 10]: 6.1%
% inhibition male (individual replicates) R3 [1, 11]: 3.4%
% inhibition male (individual replicates) R4 [1, 12]: -8.5%
HitlevelM [1, 13]: 0
Activity [1, 14]: 0
Average inhibition female (%) [2, 9]: 9.2%
% inhibition female (individual replicates) R1 [2, 10]: 9.3%
% inhibition female (individual replicates) R3 [2, 11]: -11.0%
% inhibition female (individual replicates) R4 [2, 12]: 18.4%
HitlevelF [2, 15]: 0

c1ccc(Oc2ccc(Nc3ccnc(Nc4cccc(CNCCCN5CCOCC5)c4)n3)cc2)cc1 [TCMDC-138615]
Average inhibition male (%) [1, 3]: 70.3%
% inhibition male (individual replicates) R1 [1, 4]: 74.9%
% inhibition male (individual replicates) R3 [1, 5]: 61.1%
% inhibition male (individual replicates) R4 [1, 6]: 77.6%
HitlevelM [1, 7]: 4
Average inhibition female (%) [2, 3]: 19.0%
% inhibition female (individual replicates) R1 [2, 4]: 20.2%
% inhibition female (individual replicates) R3 [2, 5]: 10.9%
% inhibition female (individual replicates) R4 [2, 6]: 5.3%
HitlevelF [2, 8]: 0

COc1cc2nc(N3CCC(CNC(=O)c4ccc(-c5ccc(C(F)(F)F)cc5)cc4)CC3)nc(N)c2cc1OC [TCMDC-138716]
Average inhibition male (%) [1, 3]: 66.2%
% inhibition male (individual replicates) R1 [1, 4]: 83.5%
% inhibition male (individual replicates) R3 [1, 5]: 34.3%
% inhibition male (individual replicates) R4 [1, 6]: 64.2%
HitlevelM [1, 7]: 3
Average inhibition female (%) [2, 3]: 47.4%
% inhibition female (individual replicates) R1 [2, 4]: 32.4%
% inhibition female (individual replicates) R3 [2, 5]: 31.5%
% inhibition female (individual replicates) R4 [2, 6]: 42.3%
HitlevelF [2, 8]: 1

CC(=O)Nc1ccc(Nc2ncc([N+](=O)[O-])c(Nc3ccccc3C(N)=O)n2)cc1.Cl [TCMDC-138731]
% inhibition male (individual replicates) R1 [1, 16]: 16.1%
% inhibition male (individual replicates) R3 [1, 17]: -4.1%
% inhibition male (individual replicates) R4 [1, 18]: 46.2%
Average inhibition male (%) [1, 19]: 19.6%
% inhibition female (individual replicates) R1 [2, 16]: 2.0%
% inhibition female (individual replicates) R3 [2, 17]: 5.4%
% inhibition female (individual replicates) R4 [2, 18]: -11.2%
Average inhibition female (%) [2, 19]: -0.8%

O=C(NCCCCN1CCC(c2ccc3c(c2OCCN2CCCC2)CCCC3)CC1)c1ccc(-c2ccc(C(F)(F)F)cc2)cc1 [TCMDC-138768]
Average inhibition male (%) [1, 9]: 31.7%
% inhibition male (individual replicates) R1 [1, 10]: 23.4%
% inhibition male (individual replicates) R3 [1, 11]: -6.7%
% inhibition male (individual replicates) R4 [1, 12]: 63.6%
HitlevelM [1, 13]: 1
Activity [1, 14]: 0
Average inhibition female (%) [2, 9]: 9.4%
% inhibition female (individual replicates) R1 [2, 10]: 18.9%
% inhibition female (individual replicates) R3 [2, 11]: -7.9%
% inhibition female (individual replicates) R4 [2, 12]: 3.3%
HitlevelF [2, 15]: 0

Cc1[nH]c(C)c(-c2ccc(Oc3ccc(OC(F)(F)F)cc3)cc2)c(=O)c1Br [TCMDC-138826]
Average inhibition male (%) [1, 9]: -11.2%
% inhibition male (individual replicates) R1 [1, 10]: -5.2%
% inhibition male (individual replicates) R4 [1, 12]: -18.5%
HitlevelM [1, 13]: 0
Activity [1, 14]: 0
Average inhibition female (%) [2, 9]: 14.3%
% inhibition female (individual replicates) R1 [2, 10]: 12.8%
% inhibition female (individual replicates) R3 [2, 11]: 15.5%
% inhibition female (individual replicates) R4 [2, 12]: 15.2%
HitlevelF [2, 15]: 0

O=C(NCC1CCN(CCN2CCC(c3cn(CCO)c4ccccc34)CC2)CC1)c1ccc(-c2ccc(C(F)(F)F)cc2)cc1 [TCMDC-138856]
Average inhibition male (%) [1, 9]: 42.1%
% inhibition male (individual replicates) R1 [1, 10]: 32.1%
% inhibition male (individual replicates) R4 [1, 12]: 39.5%
HitlevelM [1, 20]: 1
Average inhibition female (%) [2, 9]: 23.9%
% inhibition female (individual replicates) R1 [2, 10]: 24.2%
% inhibition female (individual replicates) R3 [2, 11]: 27.5%
% inhibition female (individual replicates) R4 [2, 12]: 18.4%
HitlevelF [2, 21]: 0

CC1(C)CC(NCCCCCCCOc2ccc(OCc3ccccc3)cc2)CC(C)(C)N1.Cl [TCMDC-138958]
Average inhibition male (%) [1, 3]: 66.7%
% inhibition male (individual replicates) R1 [1, 4]: 71.0%
% inhibition male (individual replicates) R3 [1, 5]: 36.7%
% inhibition male (individual replicates) R4 [1, 6]: 78.9%
HitlevelM [1, 7]: 3
Average inhibition female (%) [2, 3]: 23.9%
% inhibition female (individual replicates) R1 [2, 4]: 22.5%
% inhibition female (individual replicates) R3 [2, 5]: -1.0%
% inhibition female (individual replicates) R4 [2, 6]: 34.0%
HitlevelF [2, 8]: 0

CCN1CCC2(c3cccc(OC)c3)Cc3nc4ccccc4c(-c4ccccc4)c3CC2C1 (centres unmarked) [TCMDC-138968]
Average inhibition male (%) [1, 9]: 50.6%
% inhibition male (individual replicates) R1 [1, 10]: 28.7%
% inhibition male (individual replicates) R3 [1, 11]: 22.4%
% inhibition male (individual replicates) R4 [1, 12]: 66.9%
HitlevelM [1, 20]: 2
Average inhibition female (%) [2, 9]: 33.9%
% inhibition female (individual replicates) R1 [2, 10]: 34.1%
% inhibition female (individual replicates) R3 [2, 11]: 23.7%
% inhibition female (individual replicates) R4 [2, 12]: 21.6%
HitlevelF [2, 21]: 1

Oc1ccc2[nH]cc(C3CCN(CCCNCc4ccc(-c5ccccc5)cc4)CC3)c2c1 [TCMDC-139047]
Average inhibition male (%) [1, 9]: 41.4%
% inhibition male (individual replicates) R1 [1, 10]: 26.8%
% inhibition male (individual replicates) R4 [1, 12]: 40.8%
HitlevelM [1, 20]: 1
Average inhibition female (%) [2, 9]: 20.7%
% inhibition female (individual replicates) R1 [2, 10]: 11.5%
% inhibition female (individual replicates) R3 [2, 11]: 19.3%
% inhibition female (individual replicates) R4 [2, 12]: 14.8%
HitlevelF [2, 21]: 0
